Experimental findings from PubChem BioAssay (NCI) are described below.

Several values for one entry are separate records, joined by “and”; a condition that tells them apart may be missing. Equal entries are not always repeated.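 Cultured in 96-well plates, cells were exposed to test compound for 48 hours across five concentrations. Here, GI50 denotes the concentration required for 50% inhibition of growth. At the TGI there is no net growth.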

In the assay the test system is MDA-MB-468 breast. Kind of assay: DTP human tumour cell line panel, 48 h.
The GI50 is the concentration giving 50% growth inhibition. In general, TGI refers to the concentration giving total growth inhibition. High values mean less potent growth arrest, low ones more potent growth arrest. Take `Nc1ncnc2c1c(C(=O)NO)cn2C1OC(CO)C(O)C1O` (configuration not stated): the GI50 is 0.115 µM and the TGI was found to be 0.908 µM.
The like results for `COc1ccc2c(c1)c(-c1nc(-c3cn(C)c4ncccc34)cs1)cn2CCCCN1CCOCC1` were, in that order, 1.34 µM and 3.08 µM.
The like results for `Cc1csc(-c2ccc3c(c2)COC3(CCCN(C)C)c2ccc(F)cc2)c1` (configuration not stated) were, in that order, 1.7 µM and 3.38 µM.
Regarding `COc1cccc2cc(-c3nc(C4CCC(C(=O)O)CC4)n4ncnc(N)c34)[nH]c12` (configuration not stated), the GI50 was 0.185 µM and 0.257 µM; the TGI is 1.09 µM and 3 µM.
Consider `CNC(=O)c1c(NC(=O)c2ccc(C(C)C)cc2)sc2c1CCC(=O)C2`, for which the GI50 is 0.45 µM and the TGI came out at 2.33 µM.
The like results for `O=C1C(Cl)=C(Nc2ccccn2)C(=O)c2ccccc21` were, in that order, 1.99 µM and 4.39 µM.
The like results for `N#C/C(=C\c1ccc([N+](=O)[O-])s1)c1nc2cc(Br)ccc2s1` were, in that order, 1.89 µM and 5.42 µM.
Take `O=C1CCCC(=O)C1C(=O)c1ccc(C(F)(F)F)cc1[N+](=O)[O-]`: the GI50 is more than 100 µM and the TGI was more than 100 µM.
As for `N=C(N)c1ccc(-c2ccc(-c3ccc(Cl)c(Cl)c3)o2)nc1`, the GI50 is 1.82 µM and the TGI is 3.56 µM.
The like results for `CC(=O)OC[C@@]12Oc3c(cccc3-c3ccc(O)c4c3O[C@]3(COC(C)=O)C(=C4O)C(=O)C[C@H](C)[C@@H]3OC(C)=O)C(O)=C1C(=O)C[C@H](C)[C@@H]2OC(C)=O` were, in that order, 15.1 µM and 48.7 µM.
In the case of `Cc1cccc2c1NC(=O)C2(c1ccc(O)cc1)c1ccc(O)cc1`, the GI50 is less than 0.0181 µM and the TGI amounted to 4.24 µM.
Consider `O=C(Nc1ccc(O)c(NS(=O)(=O)c2ccc(F)cc2)c1)c1ccc(-c2ccccc2)cc1`, for which the GI50 is 2.48 µM and the TGI was 10.8 µM.
In the case of `CC(=O)OC1CC(C)c2c(Cl)ncnc21` (configuration not stated), the GI50 was more than 100 µM and the TGI is more than 100 µM.
`O=C(Nc1ccc(Cl)cc1F)c1cc(Cl)ccc1O`: the GI50 was 0.429 µM and the TGI was determined as 3.96 µM.
For `CC(C)NCCCCCNc1cc(O)cc2cccnc12` the same measures were 2.29 µM and 6.2 µM.
The like results for `CCCN(CCC)c1ccc(/C=N/NC(=O)c2cccnc2)cc1` were, in that order, 16.4 µM and 84.2 µM.
For the molecule `COc1cc(C(=O)Nc2cc(O)c(C/C=C(\C)CCC=C(C)C)c(O)c2)cc2c1O[C@]1(C)CC[C@@H](O)C(C)(C)[C@H]1C2`, the GI50 was 0.816 µM and 0.212 µM; the TGI was found to be 4.95 µM.
`Cc1nc2sc(C(=O)Nc3cccc(Cl)c3C)c(N)c2cc1C(=O)c1ccccc1`: the GI50 was 0.126 µM and the TGI was determined as 0.889 µM.
Regarding `O=C(Nc1cccc(-n2cc(-c3ccncc3)c(-c3ccc(O)c(Cl)c3)n2)c1)c1ccc(N2CCOCC2)c(C(F)(F)F)c1`, the GI50 was 35.3 µM and the TGI is more than 50 µM.
On to `COc1cc(C2C(C(=O)OCc3ccccc3)=C(C)NC(C)=C2C(=O)OCc2ccccc2)cc(OC)c1OC`, for which the GI50 is 2.43 µM and the TGI is more than 100 µM.
The like results for `OCCN1CCN(c2nc(Nc3ccc(-c4nc5ccccc5[nH]4)cc3)c3cn[nH]c3n2)CC1` were, in that order, 1.69 µM and 3.23 µM.
For `CS(=O)(=O)c1ccc(-c2[nH]c3ccc(F)cc3c2/C=N/NC(N)=S)cc1` the same measures were 2.67 µM and 13.4 µM.
For `CN1CCN(CCCN2c3ccccc3Sc3ccc(C(F)(F)F)cc32)CC1` the same measures were 1.52 µM and 3.19 µM.
With `CC(=O)Nc1ccc(S(=O)(=O)c2ccc(NC(C)=O)cc2)cc1`, the GI50 was 64.8 µM and the TGI was more than 100 µM.
As to `CC#CC(=O)N[C@H]1CCCN(c2c(F)cc(C(N)=O)c3[nH]c(C)c(C)c23)C1`, the GI50 was 11.8 µM and the TGI was found to be 27 µM.
Consider `CN1CCN(CCCOc2ccc3nc(Nc4ccc(C(F)(F)F)c(Cl)c4)ccc3c2)CC1`, for which the GI50 is 1.54 µM and the TGI is 3.16 µM.
The like results for `O=c1cc(-c2ccccc2)nc2cc(-c3ccco3)[nH]n12` were, in that order, 2.89 µM and 59.5 µM.
`CCNC(=O)c1ccc2c(c1)nc(-c1ccc(Cl)cc1)n2-c1cc(C(C)(C)C)[nH]n1`: the GI50 is 2.26 µM and the TGI came to 8.3 µM.
For `Cc1[nH]c2ccccc2c1C1=CC(=O)C=CC1=O` the same measures were 3.1 µM and 11.2 µM.
The like results for `O=C1c2ccccc2CCC1(Br)Br` were, in that order, 1.2 µM and 2.95 µM.
For `CCCCC/C=C\C/C=C/CCCCCCCCNC(=O)Nc1ccc([N+](=O)[O-])cc1` the same measures were 7.63 µM and 73 µM.
As to `CCOC(=O)c1c(NC(=O)c2ccccc2C(F)(F)F)sc2c1CCC(=O)C2`, the GI50 is 2.35 µM and the TGI is 7.52 µM.
For `CCc1cccc(CC)c1NC(=O)c1ccn2c1CCc1cnc(Nc3ccc(N4CCN(C)CC4)cc3OC)nc1-2` the same measures were 2.1 µM and 5.91 µM.
For `COc1ccc(C(=O)c2cc(OC)c(OC)c(OC)c2)cc1/C=C/C(=O)c1ccc2c(c1)OCO2` the same measures were 1.44 µM and 4.06 µM.
For `c1ccc(C2=NN[C@H](c3cn(-c4ccccc4)nc3-c3ccccc3)C2)cc1` the same measures were 4.18 µM and more than 100 µM.
Turning to `COc1cc(/C=N/Nc2ncnc3c2cnn3Cc2ccccc2)ccc1O`, the GI50 is 7.88 µM and the TGI is more than 25 µM.
